Results taken from ChEMBL document CHEMBL1255477, “In vitro properties of BAL30072, a novel siderophore sulfactam with activity against multiresistant gram-negative bacilli” (Antimicrob Agents Chemother, 2010).
In brackets after ≈: the same amount, converted by molar mass. Activity calls are given as the source filed them. The rule behind the calls is not given here.

Legend:
Pseudomonas aeruginosa [1] = test: Antimicrobial activity against Pseudomonas aeruginosa BA assessed as number of passages required for MIC to rise above 4 times original MIC; type: functional
Klebsiella pneumoniae [2] = test: Antimicrobial activity against Klebsiella pneumoniae YC harboring beta-lactamase KPC-2,TEM-1and SHV-2 by broth dilution method; type: functional
Escherichia coli [3] = test: Antimicrobial activity against Escherichia coli W3110 assessed as appearance of colony at 4 times MIC concentration; type: functional, organism-based
Providencia rettgeri [4] = test: Antimicrobial activity against Providencia rettgeri J96 harboring beta-lactamase IMP-1 by broth dilution method; type: functional
Pseudomonas aeruginosa [5] = test: Antimicrobial activity against Pseudomonas aeruginosa 527 assessed as number of passages required for MIC to rise above 4 times original MIC; type: functional
Pseudomonas aeruginosa [6] = test: Antimicrobial activity against Pseudomonas aeruginosa BA assessed as appearance of colony at 4 times MIC concentration; type: functional
[7] = system: Stenotrophomonas maltophilia; test: Antimicrobial activity against Stenotrophomonas maltophilia B715 harboring beta-lactamase L1and L2 by broth dilution method; type: functional
Pseudomonas aeruginosa [8] = test: Antimicrobial activity against pfeA deficient Pseudomonas aeruginosa 134 by broth dilution method; type: functional
Acinetobacter sp. = test: Antimicrobial activity against Acinetobacter sp. by broth dilution method; type: functional
Escherichia coli [9] = test: Antimicrobial activity against Escherichia coli nmcA harboring beta-lactamase NMCA by broth dilution method; type: functional
Enterobacter cloacae [10] = test: Antimicrobial activity against Enterobacter cloacae 908R harboring beta-lactamase AmpC by broth dilution method; type: functional
Escherichia coli [11] = test: Antimicrobial activity against Escherichia coli A harboring beta-lactamase CTX-M 15 by broth dilution method; type: functional
Pseudomonas aeruginosa [12] = test: Antimicrobial activity against oprD protein deficient Pseudomonas aeruginosa C2 by broth dilution method; type: functional
Acinetobacter baumannii [13] = test: Antimicrobial activity against Acinetobacter baumannii HPA74510 assessed as appearance of colony at 4 times MIC concentration; type: functional, organism-based
Pseudomonas aeruginosa [14] = test: Antimicrobial activity against fpvA, fpvB, fptA and pirA gene deficient Pseudomonas aeruginosa 860 by broth dilution method; type: functional
Enterobacter cloacae [15] = test: Microbicidal activity against Enterobacter cloacae S4741B selected after 4 times MIC compound exposure; type: functional
Pseudomonas aeruginosa [16] = test: Antimicrobial activity against Pseudomonas aeruginosa BA by broth dilution method; type: functional; conditions: Pseudomonas aeruginosa, BA; read-out: MIC
Pseudomonas aeruginosa [17] = test: Antimicrobial activity against mexAB-oprM protein and mexZ deficient Pseudomonas aeruginosa PAO267 by broth dilution method; type: functional
Klebsiella oxytoca [18] = test: Antimicrobial activity against Klebsiella oxytoca 1028E harboring beta-lactamase K1 by broth dilution method; type: functional
[19] = system: Stenotrophomonas maltophilia; test: Antimicrobial activity against Stenotrophomonas maltophilia by broth dilution method; type: functional
Klebsiella pneumoniae [20] = test: Antimicrobial activity against Klebsiella pneumoniae 26768WU harboring beta-lactamase SHV-5 by broth dilution method; type: functional
Acinetobacter baumannii [21] = test: Antimicrobial activity against Acinetobacter baumannii HPA 4737 harboring beta-lactamase OXA-26 by broth dilution method; type: functional
Enterobacter cloacae [22] = test: Antimicrobial activity against Enterobacter cloacae S9369 assessed as appearance of colony at 4 times MIC concentration; type: functional, organism-based
Providencia rettgeri [23] = test: Antimicrobial activity against Providencia rettgeri by broth dilution method; type: functional
Providencia stuartii = test: Antimicrobial activity against Providencia stuartii by broth dilution method; type: functional
Pseudomonas aeruginosa [24] = test: Antimicrobial activity against mexAB-oprM protein and mexCD-oprJ deficient Pseudomonas aeruginosa PAO238 by broth dilution method; type: functional
Serratia marcescens = test: Antimicrobial activity against Serratia marcescens 1T9 harboring beta-lactamase Class C by broth dilution method; type: functional
Klebsiella pneumoniae [25] = test: Antimicrobial activity against Klebsiella pneumoniae CRE harboring beta-lactamase KPC-2 by broth dilution method; type: functional
Klebsiella pneumoniae [26] = test: Antimicrobial activity against Klebsiella pneumoniae 1357E harboring beta-lactamase TEM-10 by broth dilution method; type: functional
Pseudomonas aeruginosa [27] = test: microbe, parasite or virus in culture; conditions: PAO1
Description: Antimicrobial activity against Pseudomonas aeruginosa PAO1 by broth dilution method

Klebsiella aerogenes = test: Antimicrobial activity against Enterobacter aerogenes by broth dilution method; type: functional
Pseudomonas aeruginosa [28] = test: Antimicrobial activity against mexAB-oprM protein and mexCD-oprJ deficient Pseudomonas aeruginosa PAO253 overexpressing MexEF-OprN gene by broth dilution method; type: functional
Acinetobacter baumannii [29] = test: Antimicrobial activity against Acinetobacter baumannii HPA I-16 harboring beta-lactamase OXA-27 by broth dilution method; type: functional
Proteus mirabilis = test: Antimicrobial activity against Proteus mirabilis by broth dilution method; type: functional
[30] = system: Stenotrophomonas maltophilia; test: Antimicrobial activity against Stenotrophomonas maltophilia 1AC736 assessed as number of passages required for MIC to rise above 4 times original MIC; type: functional
Pseudomonas aeruginosa [31] = test: Antimicrobial activity against Pseudomonas aeruginosa by broth dilution method; type: functional
Pseudomonas aeruginosa [32] = test: Antimicrobial activity against Pseudomonas aeruginosa BA(C1-106) selected after 25 ug/ml of compound exposure by broth dilution method; type: functional
Pseudomonas aeruginosa [33] = test: Antimicrobial activity against Pseudomonas aeruginosa 1973E harboring beta-lactamase PSE-1 and class C enzymes by broth dilution method; type: functional
Pseudomonas aeruginosa [34] = test: Antimicrobial activity against Pseudomonas aeruginosa B4 by broth dilution method; type: functional
Klebsiella pneumoniae [35] = test: Antimicrobial activity against Klebsiella pneumoniae 1338665 assessed as number of passages required for MIC to rise above 4 times original MIC; type: functional
Enterobacter cloacae [36] = test: Antimicrobial activity against Enterobacter cloacae S9369 assessed as number of passages required for MIC to rise above 4 times original MIC; type: functional
Escherichia coli [37] = test: Antimicrobial activity against Escherichia coli HB101 harboring beta-lactamase TEM-5 by broth dilution method; type: functional
Proteus penneri = test: Antimicrobial activity against Proteus penneri by broth dilution method; type: functional
Enterobacter cloacae [38] = test: Antimicrobial activity against Enterobacter cloacae S4741B assessed as number of passages required for MIC to rise above 4 times original MIC; type: functional
Klebsiella oxytoca [39] = test: Antimicrobial activity against Klebsiella oxytoca by broth dilution method; type: functional
Pseudomonas aeruginosa [40] = test: Antimicrobial activity against Pseudomonas aeruginosa HPA996 harboring beta-lactamase VIM-2 by broth dilution method; type: functional
Pseudomonas aeruginosa [41] = test: Antimicrobial activity against Pseudomonas aeruginosa 621 assessed as number of passages required for MIC to rise above 4 times original MIC; type: functional
Escherichia coli [42] = test: Antimicrobial activity against Escherichia coli by broth dilution method; type: functional
Pseudomonas aeruginosa [43] = test: Antimicrobial activity against Pseudomonas aeruginosa 1937E harboring beta-lactamase PSE-4 and class C enzymes by broth dilution method; type: functional
Pseudomonas aeruginosa [44] = test: Antimicrobial activity against fpvA deficient Pseudomonas aeruginosa (560546)9 M.P. by broth dilution method; type: functional
Escherichia coli [45] = test: Antimicrobial activity against Escherichia coli Libyien harboring beta-lactamase CMY-2 by broth dilution method; type: functional
Escherichia coli [46] = test: Antimicrobial activity against Escherichia coli K802N harboring beta-lactamase TEM-3 by broth dilution method; type: functional
Acinetobacter junii = test: Antimicrobial activity against Acinetobacter junii 15218 assessed as appearance of colony at 4 times MIC concentration; type: functional

`CC1(C)[C@H](NC(=O)/C(=N\OCc2cc(=O)c(O)cn2O)c2csc(N)n2)C(=O)N1OS(=O)(=O)O` (stereo in doubt) was tested. Which Activity (Pseudomonas aeruginosa [1]) did it give?
Its Activity is 5 passages.

And the MIC (Klebsiella pneumoniae [2])?
Its MIC is over 32 µg/mL.

And the Activity (Escherichia coli [3])?
Its Activity is “Active”.

What about the MIC (Providencia rettgeri [4]) of the same compound?
The MIC was 0.125 µg/mL (≈ 0.241 µM).

And the Activity (Pseudomonas aeruginosa [5])?
Its Activity is 9 passages.

What about the Activity (Pseudomonas aeruginosa [6]) of the same compound?
Its Activity is “Active”.

What about the Activity (Pseudomonas aeruginosa [6]; record 2) of the same compound?
The Activity was 2.1 frequency.

And the MIC [7]?
Its MIC is 0.25 µg/mL (≈ 0.482 µM).

And the MIC (Pseudomonas aeruginosa [8])?
Its MIC is 1 µg/mL (≈ 1.93 µM).

What about the MIC50 (Acinetobacter sp.) of the same compound?
Its MIC50 is 0.5 µg/mL (≈ 0.964 µM).

And the MIC90 (Acinetobacter sp.)?
Its MIC90 is 4 µg/mL (≈ 7.71 µM).

What about the MIC (Escherichia coli [9]) of the same compound?
The MIC was 1 µg/mL (≈ 1.93 µM).

And the MIC (Enterobacter cloacae [10])?
Its MIC is 4 µg/mL (≈ 7.71 µM).

What about the MIC (Escherichia coli [11]) of the same compound?
The MIC was 0.125 µg/mL (≈ 0.241 µM).

And the MIC (Pseudomonas aeruginosa [12])?
Its MIC is 0.25 µg/mL (≈ 0.482 µM).

What about the Activity (Acinetobacter baumannii [13]) of the same compound?
The Activity was “Active”.

What about the MIC (Pseudomonas aeruginosa [14]) of the same compound?
The MIC was 1 µg/mL (≈ 1.93 µM).

What about the MBC (Enterobacter cloacae [15]) of the same compound?
The MBC was 4 µg/mL (≈ 7.71 µM).

And the MIC (Pseudomonas aeruginosa [16])?
Its MIC is 1 µg/mL (≈ 1.93 µM).

What about the MIC (Pseudomonas aeruginosa [17]) of the same compound?
Its MIC is at most 0.06 µg/mL.

And the MIC (Klebsiella oxytoca [18])?
The MIC was 0.5 µg/mL (≈ 0.964 µM).

What about the MIC50 [19] of the same compound?
Its MIC50 is 0.5 µg/mL (≈ 0.964 µM).

And the MIC90 [19]?
The MIC90 was 2 µg/mL (≈ 3.86 µM).

What about the MIC (Klebsiella pneumoniae [20]) of the same compound?
The MIC was over 32 µg/mL.

And the MIC (Acinetobacter baumannii [21])?
The MIC was 8 µg/mL (≈ 15.4 µM).

What about the Activity (Enterobacter cloacae [22]) of the same compound?
Its Activity is “Active”.

And the MIC (Providencia rettgeri [23])?
The MIC was at most 0.06 µg/mL.

And the MIC50 (Providencia rettgeri [23])?
Its MIC50 is at most 0.06 µg/mL.

What about the MIC90 (Providencia rettgeri [23]) of the same compound?
The MIC90 was at most 0.06 µg/mL.

What about the MIC (Providencia stuartii) of the same compound?
The MIC was at most 0.06 µg/mL.

And the MIC50 (Providencia stuartii)?
The MIC50 was at most 0.06 µg/mL.

And the MIC90 (Providencia stuartii)?
The MIC90 was at most 0.06 µg/mL.

What about the MIC (Pseudomonas aeruginosa [24]) of the same compound?
The MIC was 0.125 µg/mL (≈ 0.241 µM).

And the MIC (Serratia marcescens)?
The MIC was 1 µg/mL (≈ 1.93 µM).

And the MIC (Klebsiella pneumoniae [25])?
Its MIC is at most 0.06 µg/mL.

What about the MIC (Klebsiella pneumoniae [26]) of the same compound?
Its MIC is 4 µg/mL (≈ 7.71 µM).

And the MIC (Pseudomonas aeruginosa [27])?
The MIC was 2 µg/mL (≈ 3.86 µM).

And the MIC50 (Klebsiella aerogenes)?
The MIC50 was 0.5 µg/mL (≈ 0.964 µM).

What about the MIC90 (Klebsiella aerogenes) of the same compound?
The MIC90 was 16 µg/mL (≈ 30.9 µM).

And the MIC (Pseudomonas aeruginosa [28])?
Its MIC is 0.5 µg/mL (≈ 0.964 µM).

What about the MIC (Acinetobacter baumannii [29]) of the same compound?
Its MIC is 0.5 µg/mL (≈ 0.964 µM).

And the MIC (Proteus mirabilis)?
Its MIC is at most 0.06 µg/mL.

What about the MIC50 (Proteus mirabilis) of the same compound?
Its MIC50 is at most 0.06 µg/mL.

And the MIC90 (Proteus mirabilis)?
The MIC90 was 0.25 µg/mL (≈ 0.482 µM).

What about the Activity [30] of the same compound?
The Activity was 4 passages.

What about the MIC50 (Pseudomonas aeruginosa [31]) of the same compound?
The MIC50 was 2 µg/mL (≈ 3.86 µM).

What about the MIC90 (Pseudomonas aeruginosa [31]) of the same compound?
The MIC90 was 8 µg/mL (≈ 15.4 µM).

And the MIC (Pseudomonas aeruginosa [32])?
Its MIC is 16 µg/mL (≈ 30.9 µM).

And the MIC (Pseudomonas aeruginosa [33])?
The MIC was 4 µg/mL (≈ 7.71 µM).

What about the MIC (Pseudomonas aeruginosa [34]) of the same compound?
Its MIC is 0.5 µg/mL (≈ 0.964 µM).

What about the Activity (Klebsiella pneumoniae [35]) of the same compound?
The Activity was 9 passages.

And the Activity (Enterobacter cloacae [36])?
Its Activity is 8 passages.

And the MIC (Escherichia coli [37])?
Its MIC is 32 µg/mL (≈ 61.7 µM).

And the MIC (Proteus penneri)?
Its MIC is at most 0.06 µg/mL.

What about the MIC50 (Proteus penneri) of the same compound?
Its MIC50 is at most 0.06 µg/mL.

And the MIC90 (Proteus penneri)?
The MIC90 was 0.25 µg/mL (≈ 0.482 µM).

And the Activity (Enterobacter cloacae [38])?
The Activity was 9 passages.

And the MIC50 (Klebsiella oxytoca [39])?
Its MIC50 is 0.125 µg/mL (≈ 0.241 µM).

And the MIC90 (Klebsiella oxytoca [39])?
The MIC90 was 4 µg/mL (≈ 7.71 µM).

And the MIC (Pseudomonas aeruginosa [40])?
Its MIC is 1 µg/mL (≈ 1.93 µM).

And the Activity (Pseudomonas aeruginosa [41])?
Its Activity is 5 passages.

What about the MIC50 (Escherichia coli [42]) of the same compound?
The MIC50 was 1 µg/mL (≈ 1.93 µM).

What about the MIC90 (Escherichia coli [42]) of the same compound?
Its MIC90 is over 32 µg/mL.

What about the MIC (Pseudomonas aeruginosa [43]) of the same compound?
The MIC was 2 µg/mL (≈ 3.86 µM).

What about the MIC (Pseudomonas aeruginosa [44]) of the same compound?
The MIC was 1 µg/mL (≈ 1.93 µM).

And the MIC (Escherichia coli [45])?
Its MIC is 4 µg/mL (≈ 7.71 µM).

What about the MIC (Escherichia coli [46]) of the same compound?
Its MIC is over 32 µg/mL.

What about the Activity (Acinetobacter junii) of the same compound?
Its Activity is “Active”.
